Measured values published in ChEMBL document CHEMBL4308892, “Synthesis and anti-neuroinflammatory activity of N-heterocyclic analogs based on natural biphenyl-neolignan honokiol” (Bioorg Med Chem Lett, 2019).

Tests used:
[1] = tested on: BV-2; assay: Anti-inflammatory activity in mouse BV2 cells assessed as inhibition of LPS-induced nitric oxide production after 24 hrs by griess assay; assay type: functional, cell-based; conditions: for IC50: BV-2, 24 h
[2] = Cytotoxicity against LPS-stimulated mouse BV2 cells assessed as cell viability at 20 uM after 24 hrs by MTT assay relative to control; assay type: cell-based, BV-2; conditions: read-out: Activity
[3] = tested on: BV-2; assay: Cytotoxicity against LPS-stimulated mouse BV2 cells assessed as reduction in cell viability at <10 uM after 24 hrs by MTT assay; assay type: cell-based; conditions: bv-2, 24 h
[4] = tested on: BV-2; assay: Anti-inflammatory activity in mouse BV2 cells assessed as inhibition of LPS-induced iNOS expression after 24 hrs by Western blot analysis; assay type: functional, cell-based
[5] = tested on: BV-2; assay: Anti-inflammatory activity in mouse BV2 cells assessed as inhibition of LPS-induced COX2 expression after 24 hrs by Western blot analysis; assay type: functional, cell-based
[6] = tested on: BV-2; assay: Anti-inflammatory activity in mouse BV2 cells assessed as inhibition of LPS-induced nitric oxide production pretreated followed by LPS-stimulation by griess assay; assay type: functional, cell-based

Row | Compound | IC50 [1] [µM] | viability at 24 h, 20 µM [2] [%] | further results
1 | CCCc1ccc(O)c(-c2ccn(Cc3ccccc3)n2)c1 | 116 | 126 | 
2 | C=CCc1ccc(OC)c(-c2ccn(-c3ccccc3)n2)c1 | 8.92 | 68.6 | inhibition [1]: Dose-dependent effect; Activity [3]: Non-Toxic; inhibition [4]: Dose-dependent effect; inhibition [5]: Dose-dependent effect
3 | C=CCc1ccc(O)c(-c2ccn(-c3ccccc3)n2)c1 | 73 | 125 | 
4 | CNC(=N)NCCC[C@H](N)C(=O)O [TILARGININE] | 26.6 | 94.4 | 
5 | CCCn1ccc(-c2cc(CC)ccc2O)n1 | > 200 | 109 | 
6 | CCOC(=O)COCc1cc(-c2cc(Br)ccc2OC)no1 | > 200 | 122 | 
7 | C=CCc1ccc(OC)c(-c2ccn(CC=C)n2)c1 | > 200 | 109 | 
8 | C=CCc1ccc(O)c(-c2ccn(CC=C)n2)c1 | 1.2 | 59.9 | inhibition [1]: Dose-dependent effect; Activity [3]: Non-Toxic; inhibition [4]: Dose-dependent effect; inhibition [5]: Dose-dependent effect
9 | C=CCc1ccc(OC)c(-c2cc(CCC)on2)c1 | > 200 | 98.2 | 
10 | C=CCc1ccc(OC)c(-c2ccn(Cc3ccccc3)n2)c1 | 36 | 112 | 
11 | C=CCc1ccc(OC)c(-c2cc(COCc3ccccc3)on2)c1 | > 200 | 145 | 
12 | C=CCc1ccc(O)c(-c2ccn(Cc3ccccc3)n2)c1 | 92.5 | 99.5 | 
13 | C=CCc1ccc(OC)c(-c2cc(CN3CCN(CC(=O)OCC)CC3)on2)c1 | > 200 | 93.2 | 
14 | C=CCc1ccc(OC)c(-c2cc(CN3CCN(Cc4ccccc4)CC3)on2)c1 | > 200 | 98.6 | 
15 | C=CCc1ccc(OC)c(-c2cc(CO)on2)c1 | > 200 | 120 | 
16 | C=CCn1ccc(-c2cc(C=C)ccc2O)n1 | 30.5 | 105 | 
17 | COc1ccc(Br)cc1-c1cc(COCc2ccccc2)on1 | > 200 | 104 | 
18 | CCCCC/C=C/C(=O)CCc1ccc(O)c(OC)c1 [SHOGAOL] |  |  | IC50 [6]: 5.59 µM
19 | CCCc1ccc(O)c(-c2cc[nH]n2)c1 | 60.2 | 94.7 | 
20 | COc1ccc(Br)cc1-c1ccn(-c2ccccc2)n1 | > 200 | 124 | 
21 | C=CCOCc1cc(-c2cc(Br)ccc2OC)no1 | 90.4 | 94.6 | 
22 | CCCc1ccc(O)c(-c2ccn(CCC)n2)c1 | 91.3 | 129 | 
23 | COc1ccc(Br)cc1-c1cc(CO)on1 | > 200 | 94.1 | 
24 | COc1ccc(Br)cc1-c1ccn(Cc2ccccc2)n1 | > 200 | 122 | 
25 | C=CCOCc1cc(-c2cc(CC=C)ccc2OC)no1 | 28.7 | 141 | 
26 | C=CCc1ccc(OC)c(-c2cc(CN3CCN(CC=C)CC3)on2)c1 | 111 | 101 | 

More lines, main results first:

Row | IC50 [1] [µM] | Compound | viability at 24 h, 20 µM [2] [%] | further results
27 | > 200 | CCCc1cc(-c2cc(Br)ccc2OC)no1 | 97.9 | 
28 | > 200 | C=CCn1ccc(-c2cc(Br)ccc2OC)n1 | 92.2 | 
29 | > 200 | Oc1ccc(Br)cc1-c1ccn(-c2ccccc2)n1 | 109 | 
30 | 112 | C=CCn1ccc(-c2cc(Br)ccc2O)n1 | 113 | 
31 | 76.9 | C=CCc1ccc(OC)c(-c2cc(CN3CCN(C(=O)OC(C)(C)C)CC3)on2)c1 | 117 | 
32 | 52.3 | C=CCc1ccc(O)c(-c2ccc(OC)c(CC=C)c2)c1 [METHYLHONOKIOL] | 115 | 
33 | > 200 | C=CCc1ccc(O)c(-c2cc(CCC)on2)c1 | 93.3 | 
34 | > 200 | C=CCc1ccc(O)c(-c2cc(CO)on2)c1 | 126 | 
35 | > 200 | COc1ccc(Br)cc1-c1cc(CN2CCN(C(=O)OC(C)(C)C)CC2)on1 | 100 | 
36 | 17 | C=CCc1ccc(O)c(-c2ccc(O)c(CC=C)c2)c1 [HONOKIOL] | 118 | 
37 | > 200 | Oc1ccc(Br)cc1-c1ccn(Cc2ccccc2)n1 | 107 | 
38 | 25.9 | C=CCc1ccc(OC)c(-c2cc(COCC(=O)OCC)on2)c1 | 126 | 
39 | 109 | CCCc1ccc(O)c(-c2ccn(-c3ccccc3)n2)c1 | 125 | 
